Test results as given in patent US8383626B2, “Nitric oxide donors for inducing neurogenesis” (Henry Ford Health System, priority 1999, dated 2013).

What was measured:
Type in all cases: in vivo, rat
[1] = tested on: progenitor cells in the dentate gyrus and subventricular zone (SVZ); test: Cell proliferation (BrdU immunoreactive cells) in ischemic rats treated with VIAGRA; conditions: 28 days after ischemia, vs saline
Method: (§1) The MCA was occluded by placement of an embolus at the origin of the MCA.
(§2) For BrdU immunostaining, DNA was first denatured by incubating brain sections (6 μm) in 50% formamide 2×SSC at 65° C. for 2 hours and then in 2 N HCL at 37° C. for 30 minutes. Sections were then rinsed with Tris buffer and treated with 1% of H2O2 to block endogenous peroxidase. Sections were incubated with a primary antibody to BrdU (1:100) at room temperature for 1 hour and then incubated with biotinylated secondary antibody (1:200, Vector, Burlingame, Calif.) for 1 hour. Reaction products were detected using 3′3′-diaminobenzidine-tetrahydrochloride (DAB, Sigma). For TuJ1 immunostaining, coronal sections were incubated with the antibody against TuJ1 (1:1000) at 4° C. overnight and then incubated with a biotinylated horse anti-mouse immunoglobulin antibody at room temperature for 30 minutes. Reaction products were detected with DAB.
BrdU immunostained sections were digitized using a 40× objective (Olympus BX40) via the MCID computer imaging analysis system (Imaging Research, St. Catharines, Canada). BrdU immunoreactive nuclei were counted on a computer monitor to improve visualization and in one focal plane to avoid over-sampling. Structures were sampled by analyzing entire structures on each section (SVZ and dentate gyrus). All BrdU immunoreactive-positive nuclei in these areas are presented as the number of the BrdU immunoreactive cells/mm^2 and data shown are mean±SE. Density for the selected several sections was averaged to obtain a mean density value for each animal. For measurements of TuJ1 immunoreactivity, a threshold was applied to each digitized image (628×480 μm^2) for ensuring that the numbers of TuJ1 immunostained pixels were representative of the original TuJ1 immunoreactive patterns. All objects with fewer than 5 pixels were eliminated from measurements. Data are presented as a percentage of area, in which the number of TuJ1 immunostained pixels was divided by the total number of pixels in the area (628×480 μm^2). […]

[2] = tested on: TuJ1 immunoreactive cells; test: TuJ1 immunoreactivity 28 days after ischemia; conditions: 2 or 5 mg/kg; vs contralateral hemisphere and saline treated ischemic rats
Method: as §2, with “3'3'-diaminobenzidine-tetrahydrochloride” for “3′3′-diaminobenzidine-tetrahydrochloride”, “DAB. BrdU immunostained sections were digitized using a 40× objective (Olympus BX40) via the MCID computer imaging analysis system (Imaging Research, St. Catharines, Canada). BrdU immunoreactive nuclei were counted on a computer monitor to improve visualization and in one focal plane to avoid over-sampling. Structures were sampled by analyzing entire structures on each section (SVZ and dentate gyrus). […] To examine the effects of […] on neurons, TuJ1 immunoreactivity was measured 28 days after ischemia.” for “DAB.”

[3] = tested on: ischemic rats (MCA occlusion); test: Behavior tests (foot-fault, adhesive removal) and body weight after MCA occlusion
Method: as §1
(§3) The ischemic rats (n=9) were treated with the same volume of saline as a control group. Rats received intraperitoneal injection of BrdU (50 mg/kg) 24 hours after ischemia and daily intraperitoneal injection of BrdU for 14 consecutive days. All rats were sacrificed 28 days after ischemia.

[4] = tested on: focal cerebral ischemia (MCA occlusion); test: Infarct volume 28 days after ischemia
Method: as §1, §3

ischemic rats (stroke) = test: Battery of neurological functional tests (NSS, Rotarod, footfault, adhesive removal, body weight) after stroke; conditions: Group 3: iv at one day and two days after stroke; middle aged rats; vs control
Method: Administration of nitric oxide donor compound (DETA/NO) to normal and ischemic rats promotes neurogenesis in non-ischemic and ischemic brains. Since then, additional experiments have been performed to test the hypothesis that neurogenesis induced by DETA/NO promotes functional improvement after stroke; the data is provided herewith. Animals were administered (iv/ip) DETA/NO at one day (Group 1) or seven days (Group 2) after induction of stroke and followed by daily injection (ip) of DETA/NO over a period of seven days. Another NO donor compound (SNAP) was administered (iv) to ischemic rats at one day and two days after stroke (Group 3). Young (3 month old) rats were used in Groups 1 and 2. Middle aged rats (10 to 12 months old) were used in Group 3. A battery of neurological functional tests were measured from two days to forty-two days after stroke. These tests included 1) Neurological severity score (NSS) which measures motor, sensory and reflex functions and is similar to the contralateral neglect testing described in humans. The higher the score, the more severe the injury; 2) Rotarod test measures fore and hindlimb motor coordination and balance. Data are presented as percentage of baseline values; 3) Footfault test measures fore and hindlimb motor coordination. The higher the number, the more severe the injury; 4) Adhesive removal test measures sensorimotor impairments. Data are presented as time (seconds). The longer the time period, the more severe the injury; 5) Animal body weight.

Row | SMILES | numbers of BrdU immunoreactive cells in the ipsilateral SVZ ([1]; 2 mg/kg) | numbers of BrdU immunoreactive cells in the SVZ of both hemispheres ([1]; 5 mg/kg) | numbers of BrdU immunoreactive cells in the dentate gyrus of both hemispheres ([1]; oral 2 or 5 mg/kg initiated at 2 or 24 hours after stroke) | TuJ1 immunoreactive cells in the ipsilateral SVZ and striatum [2] | animal body weight loss ([3]; 2 mg/kg or 5 mg/kg initiated at 2 hours) | performance on the foot-fault test and the adhesive removal test ([3]; 2 mg/kg or 5 mg/kg initiated at 2 hours of onset of ischemia, during 2 to 21 days, vs saline) | foot-fault and adhesive removal tests ([3]; 2 mg/kg starting at 24 hours after onset of ischemia, during 7 to 28 days) | body weight loss ([3]; 2 mg/kg starting at 24 hours, at 4, 7 14, 21 and 28 days after ischemia) | infarct volume 28 days after ischemia ([4]; 2 mg/kg starting at 24 hours, vs control group) | infarct volumes measured 28 days after ischemia ([4]; 2 or 5 mg/kg initiated at 2 hours, vs saline) | % of infarct volume at 28 days (Mean ± SE) ([4]; group 1: 2 h after MCAo, 2 mg/kg oral × 7days) [%] | % of infarct volume at 28 days (Mean ± SE) ([4]; group 2: 2 h after MCAo, 5 mg/kg oral × 7days) [%] | % of infarct volume at 28 days (Mean ± SE) ([4]; group 3: 24 h after MCAo, 2 mg/kg oral × 7days) [%] | motor and sensorimotor functions (Rotarod, footfault, Adhesive removal tests) (ischemic rats (stroke))
1 | CCCc1nn(C)c2c(=O)[nH]c(-c3cc(S(=O)(=O)N4CCN(C)CC4)ccc3OCC)nc12 [VIAGRA™, sildenafil] | significantly (p<0.05) increased | significantly (p<0.05) increased | significant (p<0.05) increases | significantly (p<0.05) increased | significantly reduced | significantly improved performance | significant (p<0.05) improvements | significant (p<0.05) reduction | no significant differences | not significantly different | 35.15 ± 3.25 | 37.67 ± 4.33 | 35.52 ± 0.93 | 
2 | CC(=O)N[C@H](C(=O)O)C(C)(C)SN=O (racemic) [SNAP, S-nitroso-N-acetylpenicillamine] |  |  |  |  |  |  |  |  |  |  |  |  |  | significant improvements
